SMILES	melting point
N#CCCN1CCC(c2noc3cc(F)ccc23)CC1	100 to 101 °C
CCCCC(=O)Nc1c(C(=O)OC)cccc1[N+](=O)[O-]	61 to 62 °C
C=CCOc1cc2c(c(Cl)c1Cl)C(=O)C(C)(c1ccccc1)C2 (configuration not stated)	105 °C
S=C=Nc1ccc2oc(-c3ccco3)nc2c1	135 to 137 °C
O=S1(=O)NC2CCCN2c2ccc(O)cc21 (configuration not stated)	237 to 242 °C
CC(C)Oc1ccccc1C1(N)C(=O)Nc2ccc(Cl)cc21 (configuration not stated)	193 °C
O=c1n(CCCN2CC=C(c3c[nH]c4ccccc34)CC2)nc2ccccn12	173 °C
Cc1nc2cc(NC(=O)c3cc4cccnc4n3Cc3ccncc3)ccc2s1	211 to 236 °C
Cc1nc(N2CCN(Cc3ccc(F)cc3)C2=O)sc1-c1cc[nH]n1	239 to 242 °C
Cc1ccc2c([N+](=O)[O-])cc([N+](=O)[O-])c(O)c2n1	295 to 300 °C
CCOC(=O)COc1cc2cc(CC)sc2c(Cl)c1Cl	67 to 68 °C
O=C(O)/C(=C/c1ccc(OCc2ccccc2)cc1OCc1ccccc1)NC(=O)c1ccccc1	149 to 150 °C
Cc1cc(C)c(O)c(C(CCCC(c2cc(C)cc(C)c2O)c2cc(C)cc(C)c2O)c2cc(C)cc(C)c2O)c1	236 to 242 °C
O=C1COc2ccc(C3=Nc4ccccc4SC3c3ccccc3Cl)cc2N1 (configuration not stated)	195 to 200 °C
O=C1C2=C(CCCC2)C(=O)N1c1ccc2c(c1)NC(=O)C21CC1	274 to 276 °C
NC(=O)OCC(OC(N)=O)c1ccccc1Cl (configuration not stated)	167 to 169 °C
CN1CN(C(=O)c2c(F)cccc2F)C(=O)N(c2ccc(SC(F)(F)F)cc2F)C1	92 to 94 °C
Cc1cc(C)c(-c2nc3ccc(C(=O)c4ccccc4)cc3[nH]2)[nH]1	225 to 229 °C
Cc1c(-c2ccc(OC3CCCC3)cc2)n(Cc2ccc(OCCO)cc2)c2ccc(OCc3ccccc3)cc12	129 to 131 °C
FC(F)(F)c1ccc(/C=C/c2nc(COc3cccc(CCCn4ccnn4)c3)co2)cc1	115 to 116 °C
CC1CC=C(N(C)c2ccccc2)c2ncc(C(=O)O)c(=O)n21 (configuration not stated)	170 to 171 °C

SMILES	melting point
O=C(O)CCCCCCCCCCOc1cc(OCCCCCCCCCCC(=O)O)cc(C(=O)N(CC(=O)O)CC(=O)O)c1	134 to 140 °C
O=C(Cc1ccncc1)[N+]1([O-])CCC(=C2c3ccc(Cl)cc3CCc3cccnc32)CC1 (configuration not stated)	128 to 130 °C
CCCCCCCCNc1ccc(-c2cc3ccccc3o2)cc1	87 to 90 °C
CC1(C)NC(=O)N(c2ccc([N+](=O)[O-])c(Cl)c2)C1=O	144 to 145 °C
O=C1NCCc2[nH]c3c(F)cccc3c21	255 to 257 °C
Cn1c(C(F)(F)F)cc(Cl)c(-c2ccc(Cl)c(NS(C)(=O)=O)c2)c1=O	161 to 163 °C
Cc1oc(-c2ccccc2)nc1C(=O)COc1ccc(C=C2SC(=O)NC2=O)cc1	244 to 245 °C
CC(C)[Si](Oc1cc(C=O)c2c(c1)C1(C)CCN(C)C1N2C)(C(C)C)C(C)C (configuration not stated)	42 to 45 °C
COC(=O)Cc1ccc(CNC(=O)C2Cc3ccccc3N2S(=O)(=O)c2ccc(-c3cccc(C(F)(F)F)c3)cc2)c(Cl)c1 (configuration not stated)	124 to 126 °C
CCCOc1nc(N)c2ncn(C3CCCCO3)c2n1 (configuration not stated)	138 to 140 °C
Cc1ccc(S(=O)(=O)N2CCN(c3ccc(O)cc3)CC2)cc1	193 °C
CCNC(=N)NC(=O)c1c(-c2ccccc2)noc1C	215 °C
C/C=C/CC(=O)N[C@H]1CC[C@H](CCN2CCC(c3cccc4c3CCO4)CC2)CC1	196 °C
Cc1ccccc1CNCCc1ccc(NC(=N)c2cccs2)cc1	105 to 106 °C
CCCNC(=O)Nc1ccc(N)cc1C(=O)NCC1CCN(C(c2ccccc2)c2ccccc2)CC1	213 to 214 °C
NS(=O)(=O)c1cccc(-c2noc(-c3cnn4c(C5CC5)cc(-c5ccc(Cl)cc5)nc34)n2)c1	285 °C
Cc1ccc(NC(=O)OCc2ccco2)cc1NC(=O)OCc1ccco1	154 to 156 °C
CCCCNc1cc(Cl)c2c(c1)C(c1ccccc1F)=NC(C)(C)C(=O)N2C	113 to 115 °C
COc1ccc(C2(C)CNC(=O)O2)cc1OC(C)C (configuration not stated)	67 to 69.5 °C
Cc1cc(SC2=C(O)CC(CCc3cccnc3)(C(C)C)OC2=O)c(C(C)(C)C)cc1CO (configuration not stated)	122 to 125 °C
COc1cc(C(C)C)c2c(c1)S(=O)(=O)N(COc1cc(C(F)(F)F)nn1Cc1ccccc1)C2=O	116 to 118 °C

The next lines start with the values.

melting point	SMILES
206 to 207 °C	CC(C)(C)OC(=O)c1nc(-c2ccc(Cl)cc2)[nH]c1-c1ccncc1
46 to 49 °C	CC(C)C[C@H](NC(=O)N1CCCCCC1)C(=O)N[C@](C)(Cc1ccc(OCc2ccccc2)cc1)C(=O)OC(C)(C)C
95 to 97 °C	CCCCC(Cc1ccc(OCCNC(=O)c2ccc(-c3cccc(CN(C)C)c3)cc2)cc1)C(=O)O (configuration not stated)
132 to 135 °C	CCCCN1CCC(O)(c2cccn2Cc2ccccc2F)CC1
116 °C	CN1CC(c2ccc(Cl)cc2)C(=O)C(c2cccc(C(F)(F)F)c2)C1 (configuration not stated)
82 to 83 °C	O=C1c2ccc(CCCCc3ccccc3)cc2CCN1O
75 to 82 °C	CCn1c(-c2ccc3c(c2)OCCO3)cc(=Nc2c(C)cc(C)cc2C)n(C)c1=O
168 to 170 °C	Cc1n[nH]c2c1C(=O)CC(c1ccccc1Cl)C2 (configuration not stated)
203 to 205 °C	CC(C)c1ccc(-c2nc3ccc(OC(F)(F)F)cc3[nH]2)cc1
181 to 182 °C	CC(C)(NC(=O)c1ccc([N+](=O)[O-])cc1)C(=O)CCl
245 °C	COc1ccc2[nH]c3cc(C(=O)OCc4ccccc4)c4c(c3c2c1)C(=O)NC4=O
126 to 127 °C	CSc1cc(C)nc(SC)c1NC(=O)CCCCCCCCSc1nc2ccccc2s1
125 to 128 °C	CC(C)(C)OC(=O)Nc1cn(-c2cccnc2)nc1Cl
42 to 45 °C	CCCCc1c[nH]cn1
175 to 180 °C	CCOC(=O)c1c(C)nn(C)c1CSC(=N)N
189 to 191 °C	CCn1c(C)nc2c(C3=NC(C)(C(C)C)C(=O)N3)c(C(=O)OC)ccc21 (configuration not stated)
197 to 199 °C	CC(C)(C)c1ccc(C(=O)NNS(=O)(=O)c2ccccc2)cc1
144 to 145 °C	COc1nc(OC)c(C(C)C)c(C(=O)c2cc(C)cc(C=CC#N)c2)n1
114 to 115 °C	Fc1ccc(-c2cc(C(S)(C(F)(F)F)C(F)(F)F)[nH]c2-c2ccc(F)cc2)cc1
92 to 94 °C	O=C(Cc1ccccc1)c1ccc[nH]1
233 to 236 °C	CC(=O)Nc1ccc(Cc2nc3cc(CC4SC(=O)NC4=O)ccc3o2)cc1 (configuration not stated)
254 to 255 °C	C[C@H]1CC[C@H](Nc2nccc(-n3ncc4c([N+](=O)[O-])cccc43)n2)CC1
91 to 92 °C	CC(=O)CSc1c([N+](=O)[O-])ccc(F)c1Cl
162 to 164 °C	CC(C)C(NC(=O)OCc1ccccc1)C(=O)Nc1nncs1 (racemic)
242 to 244 °C	Cc1cccc(N2CCOC2=O)c1COc1cccn2c(C=O)c(C)nc12
176 to 177 °C	CC(=O)OCC1CCn2c(c(C3=C(c4cccc(C(F)(F)F)c4)C(=O)OC3=O)c3ccccc32)C1 (configuration not stated)
225 to 226 °C	C=CCNC(=S)Nc1cc(=N)n2c(n1)SCC2
102 to 104 °C	CC(=O)N1C(C)(C)CC(O)CC1(C)C

melting point	SMILES
193 to 195 °C	Cc1cc(Cl)ccc1N1C(=O)c2ccc(Cl)cc2C1=O
> 250 °C	O=c1[nH]c2ccccc2c(O)c1-c1csc(-c2ccncc2)n1
120 to 122 °C	COc1ccc(-n2nc(N(C)C)cc2-c2ccc(OCCO)cc2)cc1
179 to 181 °C	Cc1ccc(C(=S)c2cc(Cl)cc3c2NC(=O)C3)cc1
146 to 149 °C	Cc1ccccc1C1=NOC2(C1)OC(=O)c1ccccc12 (configuration not stated)
50 to 52 °C	CCSc1cc(C)nc(SCC)c1NC(=O)CN1CCN(CCSc2nc3cccc([N+](=O)[O-])c3o2)CC1
137 to 138 °C	CC(Oc1ccc(Cl)cc1Cl)c1ccnc2ncnn12 (configuration not stated)
234 to 235 °C	CCn1cc(C(=O)O)c(=O)c2cc(F)c(N3CCN(S(=O)(=O)c4ccccc4)CC3)c(F)c21
167 to 168 °C	CC12CCC3c4cc(OCC(F)(F)F)c(O)cc4CCC3C1CCC2O (configuration not stated)
62 to 63 °C	CC(C)(O)c1cc(Br)ccc1N
145 to 147 °C	COC1=CC(C)=NN(NC(=O)N=NS(=O)(=O)C2SCCN2OCC=CCl)N1 (configuration not stated)
82 to 84 °C	Cc1cc(C)c(Cc2nc(C)nc(Cl)c2C)c(C)c1
166 °C	CCCCc1nc(I)c(CO)[nH]1
142 to 144 °C	CCC(=O)Nc1ccc(Cl)c(-n2nc(CC)n(Cc3ccc(-c4ccccc4S(=O)(=O)NC(=O)OC(C)(C)C)cc3F)c2=O)c1
83 to 86 °C	CC(C)OCc1cnc2c([N+](=O)[O-])cccc2c1Cl
61 to 62 °C	CCCCCCCCCCCCCCOCc1ccc(C(C)=O)o1
248 to 250 °C	O=[N+]([O-])c1ccc(C=Cc2ccc(N3CCC(O)CC3)cc2)cc1
111 to 112 °C	Cc1oc(-c2ccccc2)nc1COc1ccc(CON=C(CCCC(C)(C)C(=O)O)c2ccccc2)cc1
206 to 208 °C	Cc1ccc(Cl)c(-c2cc(=O)c3c(O)cc(O)c([C@@H]4CCN(C)[C@H]4CO)c3o2)c1
175 to 177 °C	COc1cc(C)nc(NC(=O)NS(=O)(=O)c2cccc3c2NC(C)C3)n1 (configuration not stated)
93 °C	CNc1cc(Cl)cc(NCCOC)c1[N+](=O)[O-]
129 to 131 °C	O=C1N=C(N2CCOCC2)SC1Cc1cccc(-c2ccc(O)c(C34CC5CC(CC(C5)C3)C4)c2)c1 (configuration not stated)
264 to 266 °C	O=C1Nc2cccc(Cl)c2C(=O)N2CCC[C@@H]12
236 to 238 °C	Brc1cnc2c(c1)ncn2-c1cccc(-n2ccnc2)c1
149 to 163 °C	COc1ccc(C(=CC(=O)N2CCOCC2)c2ccc([N+](=O)[O-])cc2)cc1OC
157 °C	CCOC(=O)C(C#N)=Cc1ccc(NC(=O)CC[Si](C)(C)C)cc1
257 to 260 °C	CC(=O)NC[C@H]1CN(c2ccc(C(=O)c3cnc4ncccn34)cc2)C(=O)O1

Source: a melting point compilation (Tetko et al.; mined from patent text by program, amines drawn as free bases though some values may be those of a salt)
